Measurements published in US6737383B1, “Herbicidal oxadiazolidines” (priority 1999, dated 2004).

Columns and labels:
cocklebur = test: Test B pre/postemergence cocklebur; format: in vivo, Xanthium strumarium
Method in brief: (§1)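 Herbicidal effect was estimated by eye on a ten-point control scale after plants spent twelve to sixteen days in a greenhouse following soil or foliar treatment. Foliar sprays targeted plants at one to four leaves; all doses were formulated in a non-phytotoxic solvent with surfactant.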

blackgrass = test: Test B pre/postemergence blackgrass; format: in vivo, Alopecurus myosuroides
Method in brief: as §1

corn = test: Test B pre/postemergence corn; format: in vivo, Zea mays
Method in brief: as §1

rice = test: Test B flood test rice; format: in vivo, Oryza sativa
Method in brief: (§2)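 Flood test on plants grown to the 2-leaf stage; treated plants kept in greenhouse twelve to sixteen days, then visually rated against controls on a 0 (no effect) to 10 (complete control) scale.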

pigweed = test: Test B pre/postemergence pigweed; format: in vivo, Amaranthus retroflexus; conditions: for Plant response rating, Redroot pigweed: scale of 0 to 10 where 0 is no effect and 10 is complete control
Method in brief: as §1

rape = test: Test B pre/postemergence rape; format: in vivo, Brassica napus; conditions: for Plant response rating, Rape: scale of 0 to 10 where 0 is no effect and 10 is complete control
Method in brief: as §1

surinam grass = test: Test B pre/postemergence surinam grass; format: in vivo, Brachiaria decumbens
Method in brief: as §1

crabgrass = test: Test B pre/postemergence crabgrass; format: in vivo, Digitaria sanguinalis
Method in brief: as §1

smallflower flatsedge = test: Test B flood test smallflower flatsedge; format: in vivo, Cyperus difformis
Method in brief: as §2

morningglory = test: Test B pre/postemergence morningglory; format: in vivo, Ipomoea hederacea; conditions: for Plant response rating, Morningglory: scale of 0 to 10 where 0 is no effect and 10 is complete control
Method in brief: as §1

giant foxtail = test: Test B pre/postemergence giant foxtail; format: in vivo, Setaria faberii
Method in brief: as §1

purple nutsedge = test: Test B pre/postemergence purple nutsedge; format: in vivo, Cyperus rotundus; conditions: for Plant response rating, Nutsedge: scale of 0 to 10 where 0 is no effect and 10 is complete control
Method in brief: as §1

sugar beet = test: Test B pre/postemergence sugar beet; format: in vivo, Beta vulgaris; conditions: for Plant response rating, Sugarbeets: scale of 0 to 10 where 0 is no effect and 10 is complete control
Method in brief: as §1

duck salad = test: Test B flood test duck salad; format: in vivo, Heteranthera limosa
Method in brief: as §2

velvetleaf = test: Test B pre/postemergence velvetleaf; format: in vivo, Abutilon theophrasti; conditions: for Plant response rating, Velvetleaf: scale of 0 to 10 where 0 is no effect and 10 is complete control
Method in brief: as §1

wheat = test: Test B pre/postemergence wheat; format: in vivo, Triticum aestivum; conditions: for Plant response rating, Wheat: scale of 0 to 10 where 0 is no effect and 10 is complete control
Method in brief: as §1

[1] = Postemergence, Rate 250 g/ha, scale 0 to 10
[2] = Postemergence, Rate 500 g/ha, scale of 0 to 10 where 0 is no effect and 10 is complete control
[3] = Preemergence, Rate 62 g/ha, scale of 0 to 10 where 0 is no effect and 10 is complete control
[4] = Preemergence, Rate 125 g/ha, scale of 0 to 10 where 0 is no effect and 10 is complete control
[5] = Preemergence, Rate 250 g/ha, scale 0 to 10, 0 is no effect, 10 is complete control
[6] = Preemergence, Rate 500 g/ha, scale 0 to 10, 0 is no effect, 10 is complete control
[7] = Rate 62 g/ha, Postemergence, scale 0 to 10 (0 no effect, 10 complete control)
[8] = Rate 125 g/ha, Postemergence, scale 0 to 10, 0 is no effect, 10 is complete control
[9] = Rate 62 g/ha, flood test species, Pre-emergence, visual evaluation after twelve to sixteen days
[10] = Rate 125 g/ha, under heading Pre-emergence, flood test species, visual evaluation after twelve to sixteen days
[11] = Rate 250 g/ha, Pre-emergence (flood test species), scale 0 to 10, 0 is no effect, 10 is complete control
[12] = Rate 500 g/ha, Pre-emergence, flood test species, scale 0 to 10 (0 no effect, 10 complete control)

In the case of CC[Si](C)(C)Cn1c(=O)on(C(=O)N(c2ccc(Cl)cc2)C(C)C)c1=O [Compound 460], the “Cocklebur plant response rating” value (cocklebur; [1]) was 0, the “Cocklebur plant response rating” value (cocklebur; [2]) was 0 and the “Plant response rating, Cocklebur” value (cocklebur; [3]) was 0. The “Plant response rating, Cocklebur” value (cocklebur; [4]) was 0, the “Cocklebur plant response rating” value (cocklebur; [5]) was 0 and the “Cocklebur plant response rating” value (cocklebur; [6]) was 0. The “Cocklebur plant response rating” value (cocklebur; [7]) was 0, the “Cocklebur plant response rating” value (cocklebur; [8]) was 0 and the “Blackgrass plant response rating” value (blackgrass; [2]) was 8. For the same compound, the “Plant response rating, Blackgrass” value (blackgrass; [3]) was 0, the “Plant response rating, Blackgrass” value (blackgrass; [4]) was 0 and the “Blackgrass plant response rating” value (blackgrass; [5]) was 0. For the same compound, the “Blackgrass plant response rating” value (blackgrass; [6]) was 3, the “Blackgrass plant response rating” value (blackgrass; [7]) was 2 and the “Corn plant response rating” value (corn; [1]) was 0. The “Corn plant response rating” value (corn; [2]) was 0, the “Plant response rating, Corn” value (corn; [3]) was 0 and the “Plant response rating, Corn” value (corn; [4]) was 0. The “Corn plant response rating” value (corn; [5]) was 0, the “Corn plant response rating” value (corn; [6]) was 2 and the “Corn plant response rating” value (corn; [7]) was 0. The “Corn plant response rating” value (corn; [8]) was 0, the “Plant response rating, Rice (0 to 10 scale, 0 is no effect, 10 is complete control)” value (rice; [9]) was 0 and the “Rice plant response rating (0 to 10 scale, 0 is no effect, 10 is complete control)” value (rice; [10]) was 0. The “Rice plant response rating” value (rice; [11]) was 0, the “Rice plant response rating” value (rice; [12]) was 0 and the “Redroot pigweed plant response rating” value (pigweed; [1]) was 1. For the same compound, the “Plant response rating, Redroot pigweed” value (pigweed; Preemergence, Rate 62 g/ha) was 0, the “Plant response rating, Redroot pigweed” value (pigweed; Preemergence, Rate 125 g/ha) was 0 and the “Redroot pigweed plant response rating” value (pigweed; [5]) was 0. The “Redroot pigweed plant response rating” value (pigweed; [6]) was 0, the “Redroot pigweed plant response rating” value (pigweed; [7]) was 0 and the “Redroot pigweed plant response rating” value (pigweed; [8]) was 0. The “Rape plant response rating” value (rape; [1]) was 0, the “Plant response rating, Rape” value (rape; Preemergence, Rate 62 g/ha) was 0 and the “Plant response rating, Rape” value (rape; Preemergence, Rate 125 g/ha) was 0. The “Rape plant response rating” value (rape; [5]) was 0, the “Rape plant response rating” value (rape; [6]) was 0 and the “Rape plant response rating” value (rape; [7]) was 0. For the same compound, the “Rape plant response rating” value (rape; [8]) was 0, the “B. signalgrass plant response rating” value (surinam grass; Postemergence, Rate 250 g/ha, scale 0 to 10, 0 no effect, 10 complete control) was 0 and the “B. signalgrass plant response rating” value (surinam grass; [2]) was 2. The “Plant response rating, B. signalgrass” value (surinam grass; [3]) was 0, the “Plant response rating, B. signalgrass” value (surinam grass; [4]) was 0 and the “B. signalgrass plant response rating” value (surinam grass; [5]) was 0. For the same compound, the “B. signalgrass plant response rating” value (surinam grass; [6]) was 0, the “B. signalgrass plant response rating” value (surinam grass; [7]) was 0 and the “B. signalgrass plant response rating” value (surinam grass; [8]) was 0. The “Crabgrass plant response rating” value (crabgrass; [1]) was 9, the “Crabgrass plant response rating” value (crabgrass; [2]) was 9 and the “Plant response rating, Crabgrass” value (crabgrass; [3]) was 0. For the same compound, the “Plant response rating, Crabgrass” value (crabgrass; [4]) was 1, the “Crabgrass plant response rating” value (crabgrass; [5]) was 6 and the “Crabgrass plant response rating” value (crabgrass; [6]) was 9. For the same compound, the “Crabgrass plant response rating” value (crabgrass; [7]) was 3, the “Crabgrass plant response rating” value (crabgrass; [8]) was 6 and the “Plant response rating, S. Flatsedge (0 to 10 scale, 0 is no effect, 10 is complete control)” value (smallflower flatsedge; [9]) was 0. For the same compound, the “S. Flatsedge plant response rating (0 to 10 scale, 0 is no effect, 10 is complete control)” value (smallflower flatsedge; [10]) was 0, the “S. Flatsedge plant response rating” value (smallflower flatsedge; [11]) was 0 and the “S. Flatsedge plant response rating” value (smallflower flatsedge; [12]) was 0. For the same compound, the “Morningglory plant response rating” value (morningglory; [1]) was 7, the “Plant response rating, Morningglory” value (morningglory; Preemergence, Rate 62 g/ha) was 0 and the “Plant response rating, Morningglory” value (morningglory; Preemergence, Rate 125 g/ha) was 0. For the same compound, the “Morningglory plant response rating” value (morningglory; [5]) was 0, the “Morningglory plant response rating” value (morningglory; [6]) was 0 and the “Morningglory plant response rating” value (morningglory; [7]) was 7. The “Morningglory plant response rating” value (morningglory; [8]) was 7, the “Giant foxtail plant response rating” value (giant foxtail; [1]) was 0 and the “Giant foxtail plant response rating” value (giant foxtail; [2]) was 1. For the same compound, the “Plant response rating, Giant foxtail” value (giant foxtail; [3]) was 0, the “Plant response rating, Giant foxtail” value (giant foxtail; [4]) was 6 and the “Giant foxtail plant response rating” value (giant foxtail; [5]) was 8. The “Giant foxtail plant response rating” value (giant foxtail; [6]) was 9, the “Giant foxtail plant response rating” value (giant foxtail; [7]) was 0 and the “Giant foxtail plant response rating” value (giant foxtail; [8]) was 0. The “Nutsedge plant response rating” value (purple nutsedge; [1]) was 0, the “Plant response rating, Nutsedge” value (purple nutsedge; Preemergence, Rate 62 g/ha) was 0 and the “Plant response rating, Nutsedge” value (purple nutsedge; Preemergence, Rate 125 g/ha) was 0. The “Nutsedge plant response rating” value (purple nutsedge; [5]) was 0, the “Nutsedge plant response rating” value (purple nutsedge; [6]) was 0 and the “Nutsedge plant response rating” value (purple nutsedge; [7]) was 0. The “Nutsedge plant response rating” value (purple nutsedge; [8]) was 0, the “Sugarbeets plant response rating” value (sugar beet; [1]) was 0 and the “Plant response rating, Sugarbeets” value (sugar beet; Preemergence, Rate 62 g/ha) was 0. The “Plant response rating, Sugarbeets” value (sugar beet; Preemergence, Rate 125 g/ha) was 0, the “Sugarbeets plant response rating” value (sugar beet; [5]) was 0 and the “Sugarbeets plant response rating” value (sugar beet; [6]) was 0. The “Sugarbeets plant response rating” value (sugar beet; [7]) was 0, the “Sugarbeets plant response rating” value (sugar beet; [8]) was 0 and the “Plant response rating, Ducksalad (0 to 10 scale, 0 is no effect, 10 is complete control)” value (duck salad; [9]) was 0. The “Ducksalad plant response rating (0 to 10 scale, 0 is no effect, 10 is complete control)” value (duck salad; [10]) was 0, the “Ducksalad plant response rating” value (duck salad; [11]) was 0 and the “Ducksalad plant response rating” value (duck salad; [12]) was 0. For the same compound, the “Velvetleaf plant response rating” value (velvetleaf; [1]) was 0, the “Plant response rating, Velvetleaf” value (velvetleaf; Preemergence, Rate 62 g/ha) was 0 and the “Plant response rating, Velvetleaf” value (velvetleaf; Preemergence, Rate 125 g/ha) was 0. The “Velvetleaf plant response rating” value (velvetleaf; [5]) was 0, the “Velvetleaf plant response rating” value (velvetleaf; [6]) was 0 and the “Velvetleaf plant response rating” value (velvetleaf; [7]) was 0. For the same compound, the “Velvetleaf plant response rating” value (velvetleaf; [8]) was 0, the “Wheat plant response rating” value (wheat; [1]) was 0 and the “Plant response rating, Wheat” value (wheat; Preemergence, Rate 62 g/ha) was 0. For the same compound, the “Plant response rating, Wheat” value (wheat; Preemergence, Rate 125 g/ha) was 0, the “Wheat plant response rating” value (wheat; [5]) was 0 and the “Wheat plant response rating” value (wheat; [6]) was 0. The “Wheat plant response rating” value (wheat; [7]) was 0 and the “Wheat plant response rating” value (wheat; [8]) was 0.
